Activity calls are given as the source filed them. The rule behind the calls is not given here.
What was measured:
[1] = test system: RAW264.7; experiment: Antiinflammatory activity in LPS-stimulated mouse RAW264.7 cells assessed as reduction in iNOS protein expression at 10 uM by immunoblot analysis relative to control; format: functional; set-up: scale not given: the % may be the effect or the level left
[2] = test system: Salmonella enteritidis; experiment: Antibacterial activity against Salmonella enteritidis ATCC 13076 at 100 ug/disk; format: functional, organism-based; conditions: Salmonella enterica subsp. enterica serovar Enteritidis
[3] = test system: Human betaherpesvirus 5; experiment: Inhibition of HCMV endonuclease at 1 mg/mL
[4] = test system: RAW264.7; experiment: Antiinflammatory activity in LPS-stimulated mouse RAW264.7 cells assessed as reduction in COX2 protein expression at 10 uM by immunoblot analysis; format: functional; set-up: scale not given: the % may be the effect or the level left

Activity [3]	Structure (SMILES)	Activity [1] [%]	Activity [2]	Activity [4]
inactive	C=C1C(=O)O[C@@H]2C[C@H]1[C@]1(O)C/C(C)=C/CC/C(C)=C/CC[C@@]2(CO)O1 (relative stereo) [DURUMHEMIKETALOLIDE A]	11	inactive	66.7%
inactive	C=C1C(=O)O[C@H]2C[C@H]1[C@]1(O)C/C(C)=C/CC/C(C)=C/CC[C@@]2(COC(C)=O)O1 (relative stereo) [DURUMHEMIKETALOLIDE B]	6.4	inactive	inactive
inactive	C=C1C(=O)O[C@H]2C[C@H]1[C@]1(O)C/C(C)=C/CC/C(C)=C/CC[C@]2(COC(C)=O)O1 (relative stereo) [DURUMHEMIKETALOLIDE C]	0	inactive	34.7%
–	O=C(/C=C/c1ccc(O)c(O)c1)OCCc1ccccc1 [CAFFEIC ACID PHENETHYL ESTER]	1.5	–	70.2%

Reference: ChEMBL document CHEMBL1151819, “Unprecedented hemiketal cembranolides with anti-inflammatory activity from the soft coral Lobophytum durum” (2009)
